In one data set the test system is Citrobacter freundii. Kind of data set: Antibacterial activity against Citrobacter freundii. The class given is functional.
Data set [1] concerns Staphylococcus aureus. Kind of data set: Antibacterial activity against methicillin-sensitive Staphylococcus aureus. The data set is classed as functional.
Data set [2] concerns Staphylococcus epidermidis. Kind of data set: Antibacterial activity against methicillin-resistant Staphylococcus epidermidis. The class given is functional.
Data set [3] is described as follows: Cytotoxicity against African green monkey Vero cells assessed as reduction in cell viability after 72 hrs by MTT assay. The class given is cell-based. The following applies: chlorocebus sabaeus, Vero cells.
A further data set relates to Enterococcus faecalis. The data set is described as follows: Antibacterial activity against Enterococcus faecalis. The data set is classed as functional.
The test system of a further data set is Klebsiella aerogenes. The data set is described as follows: Antibacterial activity against Enterobacter aerogenes. The data set is classed as functional.
The next data set has as its system Proteus mirabilis. Kind of data set: Antibacterial activity against Proteus mirabilis. The data set is classed as functional.
The next data set relates to Escherichia coli. Kind of data set: Antibacterial activity against Escherichia coli. The class given is functional.
The subject of a further data set is Enterobacter cloacae. The data set is described as follows: Antibacterial activity against Enterobacter cloacae. The data set is classed as functional.
For data set [4], the system named is Acinetobacter calcoaceticus. The data set is described as follows: Antibacterial activity against Acinetobacter calcoaceticus. The class given is functional.
The next data set concerns Klebsiella pneumoniae. The data set is described as follows: Antibacterial activity against Klebsiella pneumoniae. The class given is functional.
In another data set the test system is Pseudomonas aeruginosa. Kind of data set: Antibacterial activity against Pseudomonas aeruginosa ATCC 27853. The data set is classed as functional.
Another data set deals with Enterococcus faecium. The data set is described as follows: Antibacterial activity against Enterococcus faecium. The data set is classed as functional.
In data set [5] the test system is Staphylococcus aureus. The data set is described as follows: Antibacterial activity against methicillin-resistant Staphylococcus aureus. The data set is classed as functional.
Data set [6] deals with Mycobacterium tuberculosis. The data set is described as follows: Antitubercular activity against Mycobacterium tuberculosis H37Rv. The class given is functional.
Data set [7] in a line: Selectivity index, ratio of CC50 for African green monkey Vero cells to MIC for Mycobacterium tuberculosis H37Rv. The data set is classed as toxicity. The settings on record: read-out: Selectivity Index.
In data set [8] the test system is Staphylococcus epidermidis. Kind of data set: Antibacterial activity against methicillin-sensitive Staphylococcus epidermidis. The data set is classed as functional.

In brackets after ≈: the same amount, converted by molar mass. Where only a bound is given, the exact number is not on record here.

`CCOC(=O)c1c(-c2ccc(OC)cc2)oc2ccc(OCCCCCN3C(=O)C(=O)c4cc(F)ccc43)cc12`: the MIC90 in the data set on Citrobacter freundii is 1 µg/mL (≈ 1.83 µM); in the data set on Staphylococcus aureus [1] it was 2 µg/mL (≈ 3.67 µM); in data set [2], 8 µg/mL (≈ 14.7 µM); in the data set on Enterococcus faecalis, 4 µg/mL (≈ 7.33 µM); in the data set with Klebsiella aerogenes, 1 µg/mL (≈ 1.83 µM); with Proteus mirabilis, 0.25 µg/mL (≈ 0.458 µM). Moreover, the MIC90 against Escherichia coli was 0.25 µg/mL (≈ 0.458 µM); in the data set with Enterobacter cloacae it was 1 µg/mL (≈ 1.83 µM); in data set [4], 8 µg/mL (≈ 14.7 µM); in the data set on Klebsiella pneumoniae, 2 µg/mL (≈ 3.67 µM); in the data set on Pseudomonas aeruginosa, 8 µg/mL (≈ 14.7 µM); with Enterococcus faecium, 64 µg/mL (≈ 117 µM). The MIC90 against Staphylococcus aureus [5] was 2 µg/mL (≈ 3.67 µM); in [8], 1 µg/mL (≈ 1.83 µM). For the same compound, the CC50 at 72 h in data set [3] amounted to 512 µg/mL (≈ 938 µM). This compound also came in with an MIC in [6] of 0.064 µg/mL (≈ 0.117 µM). Moreover, the selectivity ratio in [7] worked out at 8000.

Regarding `CCOC(=O)c1c(-c2ccc(OC)cc2)oc2ccc(OCCCCCCN3C(=O)C(=O)c4cc(F)ccc43)cc12`, the MIC90 came to 1 µg/mL (≈ 1.79 µM) against Citrobacter freundii; 2 µg/mL (≈ 3.57 µM) in the data set on Staphylococcus aureus [1]; 8 µg/mL (≈ 14.3 µM) in [2]; 2 µg/mL (≈ 3.57 µM) against Enterococcus faecalis; 0.25 µg/mL (≈ 0.447 µM) in the data set on Klebsiella aerogenes; 0.125 µg/mL (≈ 0.223 µM) in the data set with Proteus mirabilis. Moreover, the MIC90 is 0.125 µg/mL (≈ 0.223 µM) against Escherichia coli; 0.5 µg/mL (≈ 0.894 µM) against Enterobacter cloacae; 4 µg/mL (≈ 7.15 µM) in data set [4]; 1 µg/mL (≈ 1.79 µM) with Klebsiella pneumoniae; 4 µg/mL (≈ 7.15 µM) against Pseudomonas aeruginosa; 16 µg/mL (≈ 28.6 µM) against Enterococcus faecium. The results for the MIC90 (with Staphylococcus aureus [5]; in data set [8]) were 2 µg/mL (≈ 3.57 µM) and 1 µg/mL (≈ 1.79 µM), respectively. In data set [3], the CC50 at 72 h turned out to be 1020 µg/mL (≈ 1830 µM). The compound also registered an MIC in data set [6] of less than 0.016 µg/mL. Further, in [7], the selectivity ratio is greater than 64000.

In the case of `CCOC(=O)c1c(-c2ccc(OC)cc2)oc2ccc(OCCCCCN3C(=O)/C(=N\OC)c4cc(F)ccc43)cc12`, the MIC90 with Citrobacter freundii is 0.125 µg/mL (≈ 0.218 µM); against Staphylococcus aureus [1], 4 µg/mL (≈ 6.96 µM); in data set [2], 4 µg/mL (≈ 6.96 µM); against Enterococcus faecalis, 1 µg/mL (≈ 1.74 µM); in the data set on Klebsiella aerogenes, 0.125 µg/mL (≈ 0.218 µM); against Proteus mirabilis it was 0.06 µg/mL (≈ 0.104 µM). Further, the MIC90 was 0.125 µg/mL (≈ 0.218 µM) with Escherichia coli; 2 µg/mL (≈ 3.48 µM) in the data set on Enterobacter cloacae; 1 µg/mL (≈ 1.74 µM) in data set [4]; 0.5 µg/mL (≈ 0.87 µM) in the data set on Klebsiella pneumoniae; 1 µg/mL (≈ 1.74 µM) in the data set on Pseudomonas aeruginosa; 16 µg/mL (≈ 27.8 µM) against Enterococcus faecium. The MIC90 amounted to 2 µg/mL (≈ 3.48 µM) in the data set on Staphylococcus aureus [5] and 0.5 µg/mL (≈ 0.87 µM) in data set [8]. The CC50 at 72 h in [3] worked out at 32 µg/mL (≈ 55.7 µM). In [6], the MIC was less than 0.016 µg/mL. In addition, in data set [7], the selectivity ratio was greater than 2000.

With `CCOC(=O)c1c(-c2ccc(OC)cc2)oc2ccc(OCCCCN3C(=O)/C(=N\OC)c4cc(F)ccc43)cc12`, the MIC90 came out at 0.25 µg/mL (≈ 0.446 µM) with Citrobacter freundii; 1 µg/mL (≈ 1.78 µM) against Staphylococcus aureus [1]; 2 µg/mL (≈ 3.57 µM) in [2]; 2 µg/mL (≈ 3.57 µM) in the data set on Enterococcus faecalis; 0.5 µg/mL (≈ 0.892 µM) against Klebsiella aerogenes; 0.25 µg/mL (≈ 0.446 µM) in the data set with Proteus mirabilis. Further, the MIC90 against Escherichia coli was 0.25 µg/mL (≈ 0.446 µM); against Enterobacter cloacae it was 0.5 µg/mL (≈ 0.892 µM); in data set [4] it was 4 µg/mL (≈ 7.14 µM); against Klebsiella pneumoniae, 2 µg/mL (≈ 3.57 µM); in the data set on Pseudomonas aeruginosa, 8 µg/mL (≈ 14.3 µM); against Enterococcus faecium, 16 µg/mL (≈ 28.5 µM). Further, the MIC90 against Staphylococcus aureus [5] was determined as 4 µg/mL (≈ 7.14 µM); in data set [8] it was 0.5 µg/mL (≈ 0.892 µM). Further, in [3], the CC50 at 72 h is 32 µg/mL (≈ 57.1 µM). In data set [6], this compound came in with an MIC of 0.031 µg/mL (≈ 0.0553 µM). Further, the selectivity ratio in data set [7] came out at 1030.

With `CCOC(=O)c1c(-c2ccc(OC)cc2)oc2ccc(OCCCCCCN3C(=O)/C(=N\NC(N)=S)c4ccccc43)cc12`, the MIC90 was found to be 2 µg/mL (≈ 3.25 µM) against Citrobacter freundii; 1 µg/mL (≈ 1.63 µM) in the data set on Staphylococcus aureus [1]; 4 µg/mL (≈ 6.51 µM) in [2]; 1 µg/mL (≈ 1.63 µM) in the data set on Enterococcus faecalis; 2 µg/mL (≈ 3.25 µM) in the data set on Klebsiella aerogenes; 1 µg/mL (≈ 1.63 µM) against Proteus mirabilis. Also, the MIC90 was 1 µg/mL (≈ 1.63 µM) with Escherichia coli; 1 µg/mL (≈ 1.63 µM) with Enterobacter cloacae; 4 µg/mL (≈ 6.51 µM) in [4]; 8 µg/mL (≈ 13 µM) in the data set with Klebsiella pneumoniae; 4 µg/mL (≈ 6.51 µM) against Pseudomonas aeruginosa; 64 µg/mL (≈ 104 µM) in the data set on Enterococcus faecium. The MIC90 was found to be 0.5 µg/mL (≈ 0.813 µM) against Staphylococcus aureus [5] and 1 µg/mL (≈ 1.63 µM) in [8]. Besides, the CC50 at 72 h in data set [3] turned out to be 8 µg/mL (≈ 13 µM). In addition, in [6], the MIC is less than 0.016 µg/mL. Besides, in data set [7], the selectivity ratio is greater than 500.

As to `CCO/N=C1\C(=O)N(CCCOc2ccc3oc(-c4ccc(OC)cc4)c(C(=O)OCC)c3c2)c2ccc(OC)cc21`, the MIC90 in the data set with Citrobacter freundii was 2 µg/mL (≈ 3.49 µM); in the data set with Staphylococcus aureus [1], 4 µg/mL (≈ 6.99 µM); in data set [2] it was 8 µg/mL (≈ 14 µM); with Enterococcus faecalis, 8 µg/mL (≈ 14 µM); with Klebsiella aerogenes, 2 µg/mL (≈ 3.49 µM); against Proteus mirabilis it was 4 µg/mL (≈ 6.99 µM). Also, the MIC90 is 0.5 µg/mL (≈ 0.873 µM) in the data set with Escherichia coli; 1 µg/mL (≈ 1.75 µM) against Enterobacter cloacae; 4 µg/mL (≈ 6.99 µM) in data set [4]; 2 µg/mL (≈ 3.49 µM) with Klebsiella pneumoniae; 4 µg/mL (≈ 6.99 µM) against Pseudomonas aeruginosa; 64 µg/mL (≈ 112 µM) with Enterococcus faecium. The MIC90 against Staphylococcus aureus [5] came to 8 µg/mL (≈ 14 µM); in data set [8], 1 µg/mL (≈ 1.75 µM). Also, the CC50 at 72 h in data set [3] stood at 32 µg/mL (≈ 55.9 µM). In data set [6], this compound registered an MIC of less than 0.016 µg/mL. In addition, the selectivity ratio in data set [7] was greater than 4000.

These data come from ChEMBL document CHEMBL4400520, “Benzofuran-isatin-imine hybrids tethered via different length alkyl linkers: Design, synthesis and in vitro evaluation of anti-tubercular and anti-bacterial activities as well as cytotoxicity” (Eur J Med Chem, 2019).
